In assay [1] the target is T1, β 5i (chymotrypsin-like activity) (Homo sapiens, UniProt P20618+P28062).
T1 construct: protease activity associated with the proteasome complex in cultured cells; endogenous in cells; host or cells: Ramos cells
Kind of assay: Cell-Based Proteasome subunit activity/selectivity assay, β5i, substrate (ANW)2Rh110. The conditions noted are these: Ramos cells; substrate (ANW)2Rh110 (β5i); highest concentration tested 20 μM; read-out: Ic50:ramos:ac-(anw)2-r110. The text has this: (§1) Cell-Based Proteasome Activity/Selectivity Assay
(§2) The Cell-Based Proteasome subunit activity/selectivity assay was a panel of 5 fluorogenic assays that independently measured the activity of β5c or β 5i (chymotrypsin-like activity), β 2c/2i (trypsin-like), and β 1c or β 1i (caspase-like) protease activity associated with the proteasome complex in cultured cells. Specifically, the following substrates were used for respective subunit activities: β 1i (PAL)2Rh110, β 1c: (LLE)2 Rh110, β 2c/2i: (KQL)2Rh110, β 5c: (WLA)2Rh110, β 5i: (ANW)2Rh110. The following procedure was followed:
(§3) Added 0.5 μl of 100× 4-fold serial diluted test compounds or DMSO to each well. Highest concentration of compound tested was 20 μM, thus compound serial dilution started from […]. Incubated for 30 minutes at 37° C. Then equilibrated at room temperature for 15 minutes. […] Shaked for one minute @ 700 rpm. Incubated for 120 min at room temperature. Then read the plates with an Envision multilabel plate reader (PerkinElmer) with 500 nm excitation/519 nm emission.

For assay [2], the target named is T2, β5c (chymotrypsin-like activity) (Homo sapiens, UniProt P20618+P28074).
T2 construct: protease activity associated with the proteasome complex in cultured cells; endogenous in cells; host or cells: Ramos cells
Kind of assay: Cell-Based Proteasome subunit activity/selectivity assay, β5c, substrate (WLA)2Rh110. Conditions: Ramos cells; substrate (WLA)2Rh110 (β5c); highest concentration tested 20 μM; read-out: Ic50:ramos:rh110-(wla)2.
Description: as §1, §2, §3

The subject of another assay is β 2c/2i (trypsin-like). Kind of assay: Cell-Based Proteasome subunit activity/selectivity assay, β2c/2i, substrate (KQL)2Rh110. The conditions noted are these: Ramos cells; substrate (KQL)2Rh110 (β2c/2i); highest concentration tested 20 μM.
Description: as §1, §2, §3

The target of another assay is T3, β 1i (caspase-like) (Homo sapiens, UniProt P28065+P40306).
T3 construct: protease activity associated with the proteasome complex in cultured cells; endogenous in cells; host or cells: Ramos cells
The experiment in a line: Cell-Based Proteasome subunit activity/selectivity assay, β1i, substrate (PAL)2Rh110. The conditions noted are these: Ramos cells; substrate (PAL)2Rh110 (β1i); highest concentration tested 20 μM; read-out: Ic50:ramos:rh110-(pal)2.
Description: as §1, §2, §3

The next assay has as its target T4, β 1c (caspase-like) (Homo sapiens, UniProt P28072+Q99436).
T4 construct: protease activity associated with the proteasome complex in cultured cells; endogenous in cells; host or cells: Ramos cells
Kind of assay: Cell-Based Proteasome subunit activity/selectivity assay, β1c, substrate (LLE)2Rh110. The conditions noted are these: Ramos cells; substrate (LLE)2Rh110 (β1c); highest concentration tested 20 μM; read-out: Ic50:ramos:rh110-(lle)2.
Description: as §1, §2, §3

For `O=C(CCNC(=O)c1cn(CCNC(=O)c2ccc(C(F)(F)F)cc2F)nn1)c1ccccc1` [Example 78], the concentration for half-maximal inhibition (IC50) in assay [1] was 0.176 µM; in assay [2] it was 14.3 µM; with β 2c/2i (trypsin-like), ≥ 20 µM; at β 1i (caspase-like), ≥ 20 µM; at β 1c (caspase-like), ≥ 20 µM.
Consider `COc1ccc(C(=O)NCCn2cc(C(=O)NC(C#N)c3ccccc3Br)nn2)c(OC)c1OC` (stereo not drawn) [Example 59, 1-[2-(2,3,4-Trimethoxy-benzoylamino)-ethyl]-1H-[1,2,3]triazole-4-carboxylic acid [(2-bromo-phenyl)-cyano-methyl]-amide], for which the IC50 was 5.67 µM in assay [1]; ≥ 20 µM in assay [2]; ≥ 20 µM in the assay on β 2c/2i (trypsin-like); ≥ 20 µM at β 1i (caspase-like); ≥ 20 µM on β 1c (caspase-like).
On to `N#CC(NC(=O)c1cn(CCNC(=O)c2ccc(C(F)(F)F)cc2F)nn1)c1ccc(C(F)(F)F)cc1` (stereo not drawn) [Example 73, 1-[2-(2-Fluoro-4-trifluoromethyl-benzoylamino)-ethyl]-1H-[1,2,3]triazole-4-carboxylic acid [cyano-(4-trifluoromethyl-phenyl)-methyl]-amide], for which the IC50 was 0.184 µM in assay [1]; ≥ 20 µM in assay [2]; ≥ 20 µM in the assay with β 2c/2i (trypsin-like); ≥ 20 µM at β 1i (caspase-like); ≥ 20 µM at β 1c (caspase-like).
Take `CCc1ccc(C(C#N)NC(=O)c2cn(CCNC(=S)c3ccc(OC)c(OC)c3OC)nn2)cc1` (stereo not drawn) [Example 86, 1-[2-(2,3,4-Trimethoxy-thiobenzoylamino)-ethyl]-1H-[1,2,3]triazole-4-carboxylic acid [cyano-(4-ethyl-phenyl)-methyl]-amide]: the IC50 in assay [1] is 0.274 µM; in assay [2], 16.3 µM; in the assay with β 2c/2i (trypsin-like) it was ≥ 20 µM; on β 1i (caspase-like) it was ≥ 20 µM.
Consider `CCc1ccc(C(C#N)NC(=O)c2cn(CCNC(=O)c3cc(C(F)(F)F)ccc3OC)nn2)cc1` (stereo not drawn) [Example 39, 1-[2-(2-Methoxy-5-trifluoromethyl-benzoylamino)-ethyl]-1H-[1,2,3]triazole-4-carboxylic acid [cyano-(4-ethyl-phenyl)-methyl]-amide], for which the IC50 in assay [1] is 0.517 µM; in assay [2] it was ≥ 20 µM; in the assay on β 2c/2i (trypsin-like) it was ≥ 20 µM; at β 1i (caspase-like), ≥ 20 µM.
For the compound `CCc1ccc(C(C#N)NC(=O)c2cn(CCNC(=O)c3cccc4c3OCCO4)nn2)cc1` (stereo not drawn) [Example 18, 1-{2-[(2,3-Dihydro-benzo[1,4]dioxine-5-carbonyl)-amino]-ethyl}-1H-[1,2,3]triazole-4-carboxylic acid [cyano-(4-ethyl-phenyl)-methyl]-amide], the IC50 in assay [1] was 0.482 µM; in assay [2] it was ≥ 20 µM; in the assay on β 2c/2i (trypsin-like), ≥ 20 µM; at β 1c (caspase-like) it was ≥ 20 µM.
On to `N#CC(NC(=O)c1cn(CCNC(=O)c2cc(Cl)ccc2Cl)nn1)c1ccc(C(F)(F)F)cc1` (stereo not drawn) [Example 69, 1-[2-(2,5-Dichloro-benzoylamino)-ethyl]-1H-[1,2,3]triazole-4-carboxylic acid [cyano-(4-trifluoromethyl-phenyl)-methyl]-amide], for which the IC50 in assay [1] was 3.79 µM; in assay [2], ≥ 20 µM; in the assay on β 2c/2i (trypsin-like) it was ≥ 20 µM; on β 1i (caspase-like) it was ≥ 20 µM.
Regarding `CCc1ccc(C(C#N)NC(=O)c2cn(CCNC(=O)c3ccc(OC)c(OC)c3OC)nn2)cc1` (single isomer, unassigned) [Example 51], the concentration for half-maximal inhibition (IC50) is 0.604 µM in assay [1] and ≥ 20 µM on β 1i (caspase-like).
On to `COc1ccc(C(=O)NCCn2cc(C(=O)NC(C#N)c3ccc4sccc4c3)nn2)c(OC)c1OC` (stereo not drawn) [Example 48, 1-[2-(2,3,4-Trimethoxy-benzoylamino)-ethyl]-1H-[1,2,3]triazole-4-carboxylic acid (benzo[b]thiophen-5-yl-cyano-methyl)-amide], for which the IC50 in assay [1] is 0.201 µM; in assay [2], 16.3 µM; in the assay on β 2c/2i (trypsin-like), ≥ 20 µM; at β 1c (caspase-like), ≥ 20 µM.
With `CCc1ccc(C(C#N)NC(=O)c2cn(CCNC(=O)c3cccc(OC)c3OC)nn2)cc1` (stereo not drawn) [Example 16, 1-[2-(2,3-Dimethoxy-benzoylamino)-ethyl]-1H-[1,2,3]triazole-4-carboxylic acid [cyano-(4-ethyl-phenyl)-methyl]-amide], the half-inhibitory concentration (IC50) is 1.12 µM in assay [1], ≥ 20 µM in assay [2], ≥ 20 µM in the assay on β 2c/2i (trypsin-like) and ≥ 20 µM at β 1c (caspase-like).
Take `CCc1ccc(C(C#N)NC(=O)c2cn(CCNC(=O)c3ccc(OC)nn3)nn2)cc1` (stereo not drawn) [Example 40, 6-Methoxy-pyridazine-3-carboxylic acid [2-(4-{[cyano-(4-ethyl-phenyl)-methyl]-carbamoyl}-[1,2,3]triazol-1-yl)-ethyl]-amide]: the IC50 is 4.06 µM in assay [1], ≥ 20 µM in assay [2], ≥ 20 µM in the assay with β 2c/2i (trypsin-like) and ≥ 20 µM on β 1i (caspase-like).
`CCc1ccc(C(C#N)NC(=O)c2cn(CCNC(=O)c3cc(Cl)cc(C)n3)nn2)cc1` (stereo not drawn) [Example 21, 4-Chloro-6-methyl-pyridine-2-carboxylic acid [2-(4-{[cyano-(4-ethyl-phenyl)-methyl]-carbamoyl}-[1,2,3]triazol-1-yl)-ethyl]-amide]: the IC50 in assay [1] is 2.88 µM; in assay [2], ≥ 20 µM; in the assay on β 2c/2i (trypsin-like) it was ≥ 20 µM; on β 1c (caspase-like) it was ≥ 20 µM.
In the case of `COc1ccc(C(=O)NCCn2cc(C(=O)NC(C#N)c3ccc(C4CC4)cc3)nn2)c(OC)c1OC` (stereo not drawn) [Example 58, 1-[2-(2,3,4-Trimethoxy-benzoylamino)-ethyl]-1H-[1,2,3]triazole-4-carboxylic acid [cyano-(4-cyclopropyl-phenyl)-methyl]-amide], the IC50 in assay [1] was 0.159 µM; in assay [2], ≥ 20 µM; in the assay on β 2c/2i (trypsin-like), ≥ 20 µM; at β 1i (caspase-like), ≥ 20 µM.
For the compound `CCc1ccc(C(C#N)NC(=O)c2cn(CCNC(=O)c3ncccc3OC)nn2)cc1` (stereo not drawn) [Example 17, 3-Methoxy-pyridine-2-carboxylic acid [2-(4-{[cyano-(4-ethyl-phenyl)-methyl]-carbamoyl}-[1,2,3]triazol-1-yl)-ethyl]-amide], the IC50 was 9.93 µM in assay [1], ≥ 20 µM in assay [2], ≥ 20 µM in the assay on β 2c/2i (trypsin-like) and ≥ 20 µM on β 1c (caspase-like).
Regarding `COc1ccc(C(=O)NCCn2cc(C(=O)NC(C#N)c3ccc4ccccc4c3)nn2)c(OC)c1OC` (stereo not drawn) [Example 49, 1-[2-(2,3,4-Trimethoxy-benzoylamino)-ethyl]-1H-[1,2,3]triazole-4-carboxylic acid (cyano-naphthalen-2-yl-methyl)-amide], the IC50 in assay [1] was 0.338 µM; in assay [2] it was 12.5 µM; in the assay on β 2c/2i (trypsin-like), ≥ 20 µM; on β 1c (caspase-like), 19 µM.
For `CCc1ccc(C(C#N)NC(=O)c2cn(CCNC(=O)c3ccc(SC)cc3OC)nn2)cc1` (stereo not drawn) [Example 19, 1-[2-(2-Methoxy-4-methylsulfanyl-benzoylamino)-ethyl]-1H-[1,2,3]triazole-4-carboxylic acid [cyano-(4-ethyl-phenyl)-methyl]-amide] the same measures were 0.111 µM, 12 µM, ≥ 20 µM and ≥ 20 µM.
Taken in the same sequence, the figures for `CCc1ccc(C(C#N)NC(=O)c2cn(CCNC(=O)c3ccc(Cl)cc3OC)nn2)cc1` (stereo not drawn) [Example 20, 1-[2-(4-Chloro-2-methoxy-benzoylamino)-ethyl]-1H-[1,2,3]triazole-4-carboxylic acid [cyano-(4-ethyl-phenyl)-methyl]-amide] were 0.196 µM, ≥ 20 µM, ≥ 20 µM and ≥ 20 µM.

The record behind these values is patent US20150299143A1, “SUBSTITUTED TRIAZOLE AND IMIDAZOLE COMPOUNDS” (HOFFMANN-LA ROCHE INC., priority 2012, published 2015).
